Source: patent publication US9415047B2, “Use of benzo five-membered nitrogen heterocyclic piperazine or piperidine derivatives” (Liaoning Emmy Biological Pharmaceutical Co., Ltd., priority 2012, dated 2016)

Tests used:
[1] = test system: NA constricted rabbit aorta; test: Relaxing effects on vascular smooth muscle constricted by noradrenaline (NA) in vitro; conditions: relaxation of rabbit aorta constricted by noradrenaline (10^−5 mol/L), mean±SEM, n=5; for EC50: Oryctolagus cuniculus
Description: Adrenaline hydrochloride (AD) (10^−5 mol/L) was added into a bath tube to induce constriction, when maximal constriction was achieved, the sample was completely flushed, K-H solution was changed for every 20 min. Contents in the tube was balanced for 60 min, when baseline recovered to be stable, noradrenaline bitartrate (NA) (10^−5 mol/L) was added to induce constriction. When the later maximal constriction response was basically consistent with the former one, the prepared compound solutions were subsequently added, including compound II-84 to II-123 solutions (1×10^−10-1×10^−2 mol/L), compound II-124 to II-157 solutions (1×10^−10-1×10^−3 mol/L), to record the waveforms. Relaxing percentage of the compound was used as Y axis, maximal relaxation response was 100%, negative logarithm of different concentration was used as X axis, to draw dose effect curve (expressed in mean±SEM ( ? ), n=5).

[2] = test system: AD constricted rabbit aorta; test: Relaxing effects on vascular smooth muscle constricted by adrenaline hydrochloride (AD) in vitro; conditions: relaxation of rabbit aorta constricted by adrenaline (10^−5 mol/L), mean±SEM, n=5; for EC50: Oryctolagus cuniculus
Description: Adrenaline hydrochloride (AD) (10^−5 mol/L) was added into a bath tube to induce constriction, when maximal constriction was achieved, the sample was completely flushed, K-H solution was changed for every 20 min. Contents in the tube was balanced for 60 min, when baseline recovered to be stable, the […] was added at the same concentration to induce constriction. When the later maximal constriction response was basically consistent with the former one, the prepared compound solutions were subsequently added, including compound II-1 to II-60 solutions (1×10^−8-1×10^−3 mol/L), compound II-84 to II-123 solutions (1×10^−10-1×10^−2 mol/L) and compound II-124 to II-157 solutions (1×10^−10˜1×10^−3 mol/L), to record the waveforms. Relaxing percentage of the compound was used as Y axis, maximal relaxation response was 100%, negative logarithm of different concentration was used as X axis, to draw dose effect curve (expressed in mean±SEM ( ? ), n=5). Compounds II-2 and II-3 had the most obvious relaxing effects (FIG. 1 and FIG. 8).

[3] = test system: high kalium concentration constricted rabbit aorta; test: Relaxing effects on vascular smooth muscle constricted by high kalium concentration in vitro; conditions: Oryctolagus cuniculus, relaxation of rabbit aorta constricted by high kalium solution (K+ 60 mmol/L); mean±SEM, n=5
Description: Adrenaline hydrochloride (AD) (10^−5 mol/L) was added into a bath tube to induce constriction, when maximal constriction was achieved, the sample was completely flushed, K-H solution was changed for every 20 min. Contents in the tube was balanced for 60 min, when baseline recovered to be stable, K-H solution in the bath tube was replaced with high kalium concentration solution to induce constriction. When the later maximal constriction response was basically consistent with the former one, the prepared compound solutions were subsequently added, including compound II-1 to II-60 solutions (1×10^−8-1×10^−3 mol/L), compound II-84 to II-123 solutions (1×10^−10-1×10^−2 mol/L) and compound II-124 to II-157 solutions (1×10^−10-1×10^−3 mol/L), to record the waveforms. Relaxing percentage of the compound was used as Y axis, maximal relaxation response was 100%, negative logarithm of different concentration was used as X axis, to draw dose effect curve (expressed in mean±SEM ( ? ), n=5). Compounds II-2 and II-3 had the most obvious relaxing effects (FIG. 2 and FIG. 9).

| SMILES | EC50 [1] | EC50 [2] | −logEC50 [1] | EC50 [3] | −logEC50 [2] |
| --- | --- | --- | --- | --- | --- |
| Fc1ccc2c(C3CCN(CCn4nnc5ccccc54)CC3)noc2c1 [II-94, N-(2-(1-benzotriazolyl)ethyl)-4-(3-(6-fluorobenzisoxazolyl))piperidine] | 1.55 µM | – | – | – | – |
| Fc1ccc2c(C3CCN(CCCCn4nnc5ccccc54)CC3)noc2c1 [II-95, N-(4-(1-benzotriazolyl)butyl)-4-(3-(6-fluorobenzisoxazolyl))piperidine] | 1.86 µM | – | – | – | – |
| N#Cc1ccc2nnn(CCCCN3CCC(c4noc5cc(F)ccc45)CC3)c2c1 [II-96, N-(4-(6-cyanobenzotriazolyl)butyl)-4-(3-(6-fluorobenzisoxazolyl))piperidine] | 4.9 µM | – | – | – | – |
| COc1ccc2nnn(CCCN3CCC(c4nsc5cc(F)ccc45)CC3)c2c1 [II-100] | 64.6 µM | – | – | – | – |
| COc1ccc2nnn(CCCN3CCC(c4n[nH]c5cc(F)ccc45)CC3)c2c1 [II-101] | 37.2 µM | – | – | – | – |
| Clc1cccc(C2CCN(CCCCn3cnc4ccccc43)CC2)c1 [II-124, N-(4-(1H-benzimidazoyl-1-yl)butyl)-4-(3-chlorophenyl)piperidine] | – | 9.33 µM | 5.11 ± 0.02 | – | – |
| Clc1cccc(C2CCN(CCCCn3nnc4ccccc43)CC2)c1 [II-125, N-(4-(1H-benzotriazole-1-yl)butyl)-4-(3-chlorophenyl)piperidine] | – | 6.92 µM | 5.27 ± 0.03 | – | – |
| FC(F)(F)c1cccc(C2CCN(CCCCn3cnc4ccccc43)CC2)c1 [II-126, N-(4-(1H-benzimidazoyl-1-yl)butyl)-4-(3-trifluoromethylphenyl)piperidine] | – | 0.617 µM | 6.32 ± 0.04 | – | – |
| FC(F)(F)c1cccc(C2CCN(CCCCn3nnc4ccccc43)CC2)c1 [II-127, N-(4-(1H-benzotriazole-1-yl)butyl)-4-(3-trifluoromethylphenyl)piperidine] | – | 0.437 µM | 6.45 ± 0.03 | – | – |
| Fc1cccc(C2CCN(CCCCn3cnc4ccccc43)CC2)c1 [II-128, N-(4-(1H-benzimidazoyl-1-yl)butyl)-4-(3-fluorophenyl)piperidine] | – | 12.9 µM | 4.67 ± 0.02 | – | – |
| COc1ccccc1C1CCN(CCCCn2cnc3ccccc32)CC1 [II-129, N-(4-(1H-benzimidazoyl-1-yl)butyl)-4-(2-methoxylphenyl)piperidine] | – | 17.4 µM | 4.55 ± 0.03 | – | – |
| Fc1ccc2nnn(CCCCN3CCC(c4cccc(C(F)(F)F)c4)CC3)c2c1 [II-130, N-(4-(6-fluoro-1H-benzotriazole-1-yl)butyl)-4-(3-trifluoromethylphenyl)piperidine] | – | 4.9 µM | 5.21 ± 0.04 | – | – |
| COc1ccc2nnn(CCCCN3CCC(c4cccc(C(F)(F)F)c4)CC3)c2c1 [II-131, N-(4-(6-methoxyl-1H-benzotriazole-1-yl)butyl)-4-(3-trifluoromethylphenyl)piperidine] | – | 13.8 µM | 4.77 ± 0.03 | – | – |
| N#Cc1ccc2nnn(CCCCN3CCC(c4cccc(C(F)(F)F)c4)CC3)c2c1 [II-132, N-(4-(6-cyano-1H-benzotriazole-1-yl)butyl)-4-(3-trifluoromethylphenyl)piperidine] | – | 16.2 µM | 4.53 ± 0.02 | – | – |
| FC(F)(F)c1cccc(C2CCN(CCCOn3nnc4ccccc43)CC2)c1 [II-133, N-(4-(1H-benzotriazole-1-yl)propoxyl)-4-(3-trifluoromethylphenyl)piperidine] | – | 2.75 µM | 5.36 ± 0.05 | – | – |
| FC(F)(F)c1cccc(C2CCN(CCCOn3cnc4ccccc43)CC2)c1 [II-134, N-(4-(1H-benzimidazole-1-yl)propoxyl)-4-(3-trifluoromethylphenyl)piperidine] | – | 4.9 µM | 5.15 ± 0.06 | – | – |
| Cc1ccc2c(C3CCN(CCCn4nnc5ccccc54)CC3)noc2c1 [II-135, N-(3-(1H-benzotriazole-1-yl)propyl)-4-(3-(6-methylbenzisoxazolyl))piperidine] | 5.5 µM | 3.55 µM | – | – | – |

| SMILES | EC50 [1] | EC50 [2] | −logEC50 [1] | EC50 [3] | −logEC50 [2] |
| --- | --- | --- | --- | --- | --- |
| COc1ccc2c(C3CCN(CCCn4nnc5ccccc54)CC3)noc2c1 [II-136, N-(3-(1H-benzotriazole-1-yl)propyl)-4-(3-(6-methoxylbenzisoxazolyl))piperidine] | 9.12 µM | 4.57 µM | – | – | – |
| Fc1ccc2c(C3CCN(CCCn4nnc5ccc(F)cc54)CC3)noc2c1 [II-137, N-(3-(6-fluoro-1H-benzotriazole-1-yl)propyl)-4-(3-(6-fluorobenzisoxazolyl))piperidine] | 1.86 µM | 2.45 µM | – | – | – |
| Fc1ccc2c(C3CCN(CCCn4nnc5ccc(Cl)cc54)CC3)noc2c1 [II-138, N-(3-(6-chloro-1H-benzotriazole-1-yl)propyl)-4-(3-(6-fluorobenzisoxazolyl))piperidine] | 6.03 µM | 3.8 µM | – | – | – |
| Cc1ccc2nnn(CCCN3CCC(c4noc5cc(F)ccc45)CC3)c2c1 [II-139, N-(3-(6-methyl-1H-benzotriazole-1-yl)propyl)-4-(3-(6-fluorobenzisoxazolyl))piperidine] | – | 4.17 µM | 5.35 ± 0.03 | – | – |
| O=Cc1ccc2nnn(CCCN3CCC(c4noc5cc(F)ccc45)CC3)c2c1 [II-141, N-(3-(6-formoxyl-1H-benzotriazole-1-yl)propyl)-4-(3-(6-fluorobenzisoxazolyl))piperidine] | – | 2.75 µM | 5.73 ± 0.04 | – | – |
| COc1ccc2nnn(CCCN3CCC(c4noc5ccccc45)CC3)c2c1 [II-142, N-(3-(6-methoxylbenzotriazolyl)propyl)-4-(3-benzisoxazolyl)piperidine] | – | 0.776 µM | 6.07 ± 0.04 | – | – |
| N#Cc1ccc2nnn(CCCCN3CCC(c4noc5cc(F)ccc45)CC3)c2c1 [II-145, N-(4-(6-cyanobenzotriazolyl)butyl)-4-(3-(6-fluorobenzisoxazolyl))piperidine] | – | 2.95 µM | – | 295 µM | – |
| COc1ccc2c(C3CCN(CCCCn4nnc5ccc(C#N)cc54)CC3)noc2c1 [II-146, N-(4-(6-cyanobenzotriazolyl)butyl)-4-(3-(6-methoxylbenzisoxazolyl))piperidine] | – | 5.89 µM | 5.09 ± 0.04 | – | – |
| COc1ccc2nnn(CCCN3CCC(c4nsc5cc(F)ccc45)CC3)c2c1 [II-149, N-(3-(6-methoxylbenzotriazolyl)propyl)-4-(3-(6-fluorobenzisothiazolyl))piperidine] | – | 97.7 µM | – | 490 µM | – |
| COc1ccc2nnn(CCCN3CCC(c4n[nH]c5cc(F)ccc45)CC3)c2c1 [II-150, N-(3-(6-methoxylbenzotriazolyl)propyl)-4-(3-(6-fluorobenzopyrazol))piperidine] | – | 74.1 µM | – | 234 µM | – |
| c1coc(C2CCN(CCCCn3cnc4ccccc43)CC2)c1 [II-152, N-(4-(1H-benzimidazoyl-1-yl)butyl)-4-(2-furyl)piperidine] | – | 37.2 µM | 4.23 ± 0.03 | – | – |
| c1ccc2c(c1)ncn2CCCCN1CCC(c2ccncc2)CC1 [II-153, N-(4-(1H-benzimidazoyl-1-yl)butyl)-4-(4-pyridyl)piperidine] | – | 13.8 µM | 4.66 ± 0.02 | – | – |
| c1cnc(C2CCN(CCCCn3cnc4ccccc43)CC2)nc1 [II-154, N-(4-(1H-benzimidazoyl-1-yl)butyl)-4-(2-pyrimidinyl)piperidine] | – | – | 4.52 ± 0.04 | – | 4.72 ± 0.03 |
| c1ccc2c(c1)nnn2CCCCN1CCC(C2CCCCC2)CC1 [II-155, N-(4-(1H-benzotriazole-1-yl)butyl)-4-cyclohexyl piperidine] | – | – | 4.44 ± 0.05 | – | 4.39 ± 0.05 |
| c1ccc2c(C3CCN(CCCCn4nnc5ccccc54)CC3)cccc2c1 [II-156, N-(4-(1H-benzotriazole-1-yl)butyl)-4-(1-naphthyl)piperidine] | – | – | 4.34 ± 0.04 | – | 4.22 ± 0.06 |
| c1ccc2nc(C3CCN(CCCCn4nnc5ccccc54)CC3)cnc2c1 [II-157, N-(4-(1H-benzotriazole-1-yl)butyl)-4-(2-quinoxalinyl)piperidine] | – | – | 4.53 ± 0.05 | – | 4.83 ± 0.05 |
